Test results: ChEMBL document CHEMBL5576110, “Identification of AdipoRon analogues as novel activators of AMPK for the treatment of type 2 diabetes” (RSC Med Chem, 2024)
The source made the active and inactive calls. The calls are words filed in the database; no cut-off is given here.

Columns and labels:
C2C12 [1] = assay: Agonist activity at adiponectin receptor in mouse C2C12 cells assessed as increase in AMPK phosphorylation at 10 uM measured after 2 hrs by Western blot analysis; type: cell-based; conditions: filed as agonist
C2C12 [2] = assay: Induction of glucose consumption in mouse C2C12 cells at 10 uM measured after 12 hrs (reference value: 100%); type: functional
[3] = target: T1, Acetyl-CoA carboxylase (Homo sapiens) (UniProt Q13085+O00763); assay: Induction of ACC phosphorylation in human HepG2 cells measured at 10 uM by Western blot analysis; type: cell-based; conditions: filed as activator, time 0.5-12 hrs, TDE = time-dependent effect
HepG2 [4] = assay: Induction of AMPK phosphorylation in human HepG2 cells at 0.1 to 20 uM measured after 2 hrs by Western blot analysis; type: cell-based; conditions: filed as activator, dose 0.1-20 µM
C2C12 [5] = assay: Agonist activity at adiponectin receptor in mouse C2C12 cells assessed as increase in ACC phosphorylation measured after 2 hrs by Western blot analysis; type: cell-based; conditions: filed as agonist, dose 0.1-20 µM
[6] = Stability in mouse liver microsomes assessed as parent compound remaining preincubated for 5 mins followed by NADPH addition measured after 45 mins by LC/MS analysis; type: ADME, Microsome; conditions: time 50 min, read-out: Stability
HepG2 [7] = assay: Induction of AMPK in human HepG2 cells at 10 uM measured after 0.5 to 12 hrs by Western blot analysis; type: cell-based; conditions: filed as activator, time 0.5-12 hrs
Mus musculus [8] = assay: Hypoglycemic activity in IG dosed lean C57BL/6J mouse assessed as reduction in blood glucose level administered 2 hrs prior to glucose challenge measured up to 90 mins by IPGTT; type: functional, organism-based; conditions: dose 50-100 mg/kg, time 3.5 hrs
Mus musculus [9] = assay: Anti-hyperglycemic activity in db/db mouse assessed as improvement in insulin resistance at 100 mg/kg, IG administered once daily for 6 weeks by insulin tolerance test; type: functional, organism-based
[10] = Half life in human liver microsomes by LC/MS analysis; type: ADME, Microsome
[11] = Toxicity in db/db mouse assessed as effect on body weight at 100 mg/kg, IG administered once daily for 2 to 6 weeks measured weekly during compound dosing; type: organism-based; conditions: in vivo, po, time 2-6 weeks
[12] = target: 5'-AMP-activated protein kinase (Mus musculus) (UniProt Q5EG47+Q8BRK8+Q6PAM0+O54950+Q91WG5+Q9R078+Q8BGM7); assay: Induction of AMPK phosphorylation in mouse C2C12 cells at 10 uM measured after 1 to 12 hrs by Western blot analysis; type: cell-based; conditions: filed as activator, time 1-12 hrs
Mus musculus [13] = assay: Anti-hyperglycemic activity in db/db mouse assessed as reduction in blood glucose level at 100 mg/kg, IG administered once daily for 2 to 6 weeks measured weekly during compound dosing; type: functional, organism-based; conditions: time 2-6 weeks
[14] = Half life in mouse liver microsomes by LC/MS analysis; type: ADME, Microsome
[15] = Intrinsic clearance in mouse liver microsomes preincubated for 5 mins followed by NADPH addition measured after 45 mins by LC/MS analysis; type: ADME, Microsome; conditions: time 50 min, read-out: CLH
[16] = target: T1, Acetyl-CoA carboxylase (Homo sapiens); assay: Induction of ACC phosphorylation in human HepG2 cells measured after 2 hrs by Western blot analysis; type: cell-based; conditions: filed as activator, dose 0.1-20 µM
[17] = Stability in human liver microsomes assessed as parent compound remaining preincubated for 5 mins followed by NADPH addition measured after 45 mins by LC/MS analysis; type: ADME, Microsome; conditions: time 50 min, read-out: Stability
HepG2 [18] = assay: Cytotoxicity against human HepG2 cells at 5 to 20 uM measured after 72 hrs by MTT assay; type: toxicity, cell-based; conditions: hepg2, 72 h, dose 5-20 µM
[19] = Intrinsic clearance in human liver microsomes preincubated for 5 mins followed by NADPH addition measured after 45 mins by LC/MS analysis; type: ADME, Microsome; conditions: time 50 min, read-out: CLH
C2C12 [20] = assay: Cytotoxicity against mouse C2C12 cells at 5 to 20 uM measured after 72 hrs by MTT assay; type: toxicity, cell-based; conditions: c2c12, 72 h, dose 5-20 µM
Mus musculus [21] = assay: Hypoglycemic activity in lean C57BL/6J mouse assessed as reduction in blood glucose level at 10 mg/kg, IG administered 2 hrs prior to glucose challenge measured up to 90 mins by IPGTT; type: functional, organism-based; conditions: time 3.5 hrs
Mus musculus [22] = assay: Hypoglycemic activity in lean C57BL/6J mouse assessed as reduction in blood glucose level at 100 mg/kg, IG administered 2 hrs prior to glucose challenge measured up to 90 mins by IPGTT; type: functional, organism-based; conditions: time 3.5 hrs
[23] = Agonist activity at adiponectin receptor in mouse C2C12 cells assessed as increase in AMPK phosphorylation; type: cell-based

| Compound | Activity (C2C12 [1]) | Activity (C2C12 [2]) [%] | other results |
| --- | --- | --- | --- |
| CC(C)(Oc1ccc(C(=O)c2ccc(Cl)cc2)cc1)C(=O)N1CCN(C(=O)/C=C/c2ccccc2)CC1 | Active | 129 |  |
| COc1cc(/C=C/C(=O)N2CCN(C(=O)C(C)(C)Oc3ccc(C(=O)c4ccccc4)cc3)CC2)ccc1O | Active | 136.4 |  |
| CC(C)(Oc1ccc(C(=O)c2ccc(Cl)cc2)cc1)C(=O)NC1CCN(C(=O)/C=C/c2ccccc2)CC1 | Active | 117.3 |  |
| COc1ccc(/C=C/C(=O)N2CCN(C(=O)C(C)(C)Oc3ccc(C(=O)c4ccc(Cl)cc4)cc3)CC2)cc1OC | Active | 138.5 |  |
| COc1ccc(/C=C/C(=O)NC2CCN(C(=O)C(C)(C)Oc3ccc(C(=O)c4ccccc4)cc3)CC2)cc1OC | Active | 116.7 |  |
| COc1ccc(/C=C/C(=O)N2CCC(NC(=O)C(C)(C)Oc3ccc(C(=O)c4ccc(Cl)cc4)cc3)CC2)cc1OC | Active | 125.1 |  |
| COc1cc(/C=C/C(=O)N2CCN(C(=O)C(C)(C)Oc3ccc(C(=O)c4ccc(Cl)cc4)cc3)CC2)ccc1O | Active | 141.7 | Activity [3]: Tde; Activity (HepG2 [4]): Active; Activity (C2C12 [5]): Dose-Dependent Effect; remaining at 0.75 h [6]: 38%; Activity (HepG2 [7]): Active; Activity (Mus musculus [8]): Dose-Dependent Effect; Activity (Mus musculus [9]): Active; half-life [10]: 87 min; Activity [11]: Non-Toxic; Activity [12]: Active; Activity (Mus musculus [13]): Active; half-life [14]: 33 min; CLint scaled [15]: 156 mL/min/kg; Activity [16]: Dose-Dependent Effect; remaining at 0.75 h [17]: 69%; Activity (HepG2 [18]): Non-Toxic; CLint scaled [19]: 21 mL/min/kg; Activity (C2C12 [20]): Non-Toxic |
| COc1ccc(/C=C/C(=O)NC2CCN(C(=O)C(C)(C)Oc3ccc(C(=O)c4ccc(Cl)cc4)cc3)CC2)cc1OC | Active | 118.3 |  |
| CC(C)(Oc1ccc(C(=O)c2ccccc2)cc1)C(=O)N1CCN(C(=O)/C=C/c2ccccc2)CC1 | Active | 132.5 |  |
| CC(C)(Oc1ccc(C(=O)c2ccccc2)cc1)C(=O)N1CCC(NC(=O)/C=C/c2ccccc2)CC1 | Active | 117.6 |  |
| CC(C)(Oc1ccc(C(=O)c2ccccc2)cc1)C(=O)NC1CCN(C(=O)/C=C/c2ccccc2)CC1 | Active | 121.3 |  |
| COc1cc(/C=C/C(=O)NC2CCN(C(=O)C(C)(C)Oc3ccc(C(=O)c4ccccc4)cc3)CC2)ccc1O | Active | 128.5 |  |
| COc1cc(/C=C/C(=O)N2CCC(NC(=O)C(C)(C)Oc3ccc(C(=O)c4ccccc4)cc3)CC2)ccc1O | Active | 115.2 |  |
| CC(C)(Oc1ccc(C(=O)c2ccc(Cl)cc2)cc1)C(=O)N1CCC(NC(=O)/C=C/c2ccccc2)CC1 | Active | 113 |  |
| O=C(c1ccc(F)cc1)C1CCN(CCn2c(=O)[nH]c3ccccc3c2=O)CC1 [KETANSERIN] |  |  | remaining at 0.75 h [6]: 29%; half-life [10]: 28 min; half-life [14]: 26 min; CLint scaled [15]: 245 mL/min/kg; remaining at 0.75 h [17]: 31% |
| O[C@@H]1CO[C@H]2[C@@H]1OC[C@H]2Oc1nc2nc(-c3ccc(-c4ccccc4)cc3)c(Cl)cc2[nH]1 |  |  | Activity (Mus musculus [21]): Active |
| COc1ccc(/C=C/C(=O)N2CCC(NC(=O)C(C)(C)Oc3ccc(C(=O)c4ccccc4)cc3)CC2)cc1OC | Active | 104.5 |  |
| O=C(COc1ccc(C(=O)c2ccccc2)cc1)NC1CCN(Cc2ccccc2)CC1 | Active | 135.2 | Activity (Mus musculus [22]): Active; EC50 [23]: ~10 µM |
| COc1cc(/C=C/C(=O)N2CCC(NC(=O)C(C)(C)Oc3ccc(C(=O)c4ccc(Cl)cc4)cc3)CC2)ccc1O | Active | 126.1 |  |
| COc1ccc(/C=C/C(=O)N2CCN(C(=O)C(C)(C)Oc3ccc(C(=O)c4ccccc4)cc3)CC2)cc1OC | Active | 135.8 |  |
